Active and inactive are the calls of the source. No cut-off for these calls is given here.
Legend:
[1] = species on record: Danio rerio; assay: Antialzheimer activity in Alcl3-induced zebra fish AD model assessed as increase in motility at 0.78 ug/ml relative to control; type: functional; details: dose 0.78 µg/ml
[2] = Toxicity in 2 dpf zebra fish assessed as bradycardia at 25 ug/ml after 3 days relative to control; parameters: species or system Danio rerio; details: zebrafish, 72 h, at 25 µg/mL, time 3 day
[3] = species on record: Danio rerio; assay: Antialzheimer activity in Alcl3-induced zebra fish AD model assessed as increase dyskinesia recovery rate; type: functional, organism-based
[4] = target: Acetylcholinesterase (Electrophorus electricus, UniProt O42275); assay: Inhibition of electric eel AChE by Ellman's method
Chain of Acetylcholinesterase (Electrophorus electricus, UniProt O42275) (O42275 whole entry): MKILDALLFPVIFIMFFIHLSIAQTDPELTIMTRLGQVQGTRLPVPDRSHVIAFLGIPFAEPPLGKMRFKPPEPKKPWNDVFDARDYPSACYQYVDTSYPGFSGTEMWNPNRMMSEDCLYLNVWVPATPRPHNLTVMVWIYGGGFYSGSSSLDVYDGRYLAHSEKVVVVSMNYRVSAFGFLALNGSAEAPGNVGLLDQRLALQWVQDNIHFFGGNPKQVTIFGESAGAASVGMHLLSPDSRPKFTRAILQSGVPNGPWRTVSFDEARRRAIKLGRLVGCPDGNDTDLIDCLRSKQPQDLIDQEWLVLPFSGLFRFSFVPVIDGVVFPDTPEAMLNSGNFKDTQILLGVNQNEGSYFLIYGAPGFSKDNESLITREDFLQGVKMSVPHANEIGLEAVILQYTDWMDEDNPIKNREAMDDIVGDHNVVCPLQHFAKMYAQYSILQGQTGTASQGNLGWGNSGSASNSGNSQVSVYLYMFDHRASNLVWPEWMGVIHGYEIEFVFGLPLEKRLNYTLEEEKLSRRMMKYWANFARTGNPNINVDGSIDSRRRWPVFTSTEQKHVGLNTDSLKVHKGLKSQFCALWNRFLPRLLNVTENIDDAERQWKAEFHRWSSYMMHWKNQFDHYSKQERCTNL

[5] = tested on: U-87MG ATCC; assay: Induction of autophagy in human U87 cells stably transfected GFP-LC3 assessed as increase in GFP-LC3 puncta formation at 10 uM after 24 hrs by fluorescence microscopic method; type: functional, cell-based
[6] = species on record: Homo sapiens; assay: Binding affinity to amyloid beta (1 to 42 residues) (unknown origin) assessed as dissociation rate constant by biolayer interferometry analysis
[7] = tested on: HT-22; assay: Activation of ubiquitin-proteasome system in mouse HT-22 cells expressing YFP-CLI assessed as reduction in GFP level at 10 uM after 24 hrs by fluorescence microscopic method; type: cell-based; details: filed as activator
[8] = Toxicity in 2 dpf zebra fish assessed as dark brown liver at 8.33 ug/ml after 3 days relative to control; parameters: species or system Danio rerio; details: zebrafish, 72 h, at 8.33 µg/mL, time 3 day
[9] = tested on: PC-12; assay: Cytotoxicity against rat PC-12 cells assessed as reduction in cell viability up to 100 uM after 48 hrs by MTT assay; type: cell-based; details: pc-12, 48 h
[10] = tested on: HT-22; assay: Activation of ubiquitin-proteasome system in mouse HT-22 cells expressing YFP-CLI assessed as reduction in GFP level at 10 uM after 24 hrs by flow cytometric analysis; type: cell-based; details: filed as activator
[11] = tested on: Mus musculus; assay: Antialzheimer activity in scopolamine-induced Kunming mouse model of memory impairment assessed as uniquely mapped in brain hippocampus at 5 mg/kg , po by illumina sequencing method (reference value: 94.54%); type: functional
[12] = target: Acetylcholinesterase (Homo sapiens, UniProt P22303); assay: Inhibition of AChE in human erythrocytes by Ellman's method; type: cell-based, Erythrocyte
Chain of Acetylcholinesterase (Homo sapiens, UniProt P22303) (P22303 whole entry): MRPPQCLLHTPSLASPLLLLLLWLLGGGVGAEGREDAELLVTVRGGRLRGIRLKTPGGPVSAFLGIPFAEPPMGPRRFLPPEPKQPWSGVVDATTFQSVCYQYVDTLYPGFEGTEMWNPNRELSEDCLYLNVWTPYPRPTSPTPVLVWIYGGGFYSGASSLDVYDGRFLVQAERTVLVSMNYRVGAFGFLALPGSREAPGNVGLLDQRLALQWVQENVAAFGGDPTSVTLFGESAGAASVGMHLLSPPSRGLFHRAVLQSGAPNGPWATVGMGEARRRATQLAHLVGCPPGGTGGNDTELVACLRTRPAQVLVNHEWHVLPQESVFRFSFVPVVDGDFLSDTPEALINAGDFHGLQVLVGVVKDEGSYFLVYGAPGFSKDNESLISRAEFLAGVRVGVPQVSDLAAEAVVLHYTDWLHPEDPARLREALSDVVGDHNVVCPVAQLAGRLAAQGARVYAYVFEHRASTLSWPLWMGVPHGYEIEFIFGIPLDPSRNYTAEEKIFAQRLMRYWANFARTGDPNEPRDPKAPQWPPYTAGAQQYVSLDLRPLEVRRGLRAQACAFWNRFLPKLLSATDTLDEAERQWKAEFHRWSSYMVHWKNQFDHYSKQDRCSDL

[13] = tested on: HT-22; assay: Activation of ubiquitin-proteasome system in mouse HT-22 cells expressing pRK5-GFP-Tau assessed as increase in tau degradation by measuring reduction in GFP level after 24 hrs by flow cytometric analysis; type: cell-based; details: filed as activator, dose 2.5-20 µM
[14] = target: T1, Cholinesterase (Homo sapiens, UniProt P06276); assay: Reversible inhibition of human BChE assessed as residual activity at 0.1 times of IC50 concentration relative to control
T1 sequence (P06276 whole entry): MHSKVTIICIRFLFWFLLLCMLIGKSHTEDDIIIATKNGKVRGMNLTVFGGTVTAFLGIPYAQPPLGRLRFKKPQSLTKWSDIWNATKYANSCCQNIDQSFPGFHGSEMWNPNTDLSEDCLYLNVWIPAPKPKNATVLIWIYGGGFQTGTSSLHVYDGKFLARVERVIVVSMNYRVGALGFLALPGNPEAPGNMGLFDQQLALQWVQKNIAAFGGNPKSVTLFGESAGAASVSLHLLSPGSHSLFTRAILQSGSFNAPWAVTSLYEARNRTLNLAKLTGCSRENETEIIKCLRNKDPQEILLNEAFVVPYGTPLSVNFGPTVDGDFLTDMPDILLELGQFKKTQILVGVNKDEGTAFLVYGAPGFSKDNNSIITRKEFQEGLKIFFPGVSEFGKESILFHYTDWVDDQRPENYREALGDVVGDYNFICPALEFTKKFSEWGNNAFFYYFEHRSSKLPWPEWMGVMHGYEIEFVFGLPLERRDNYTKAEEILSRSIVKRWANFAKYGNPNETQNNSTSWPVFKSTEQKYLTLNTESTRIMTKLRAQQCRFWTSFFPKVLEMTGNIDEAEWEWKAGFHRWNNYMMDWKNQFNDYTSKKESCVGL

[15] = Toxicity in 2 dpf zebra fish assessed as absent blood flow at 8.33 ug/ml after 3 days relative to control; type: tissue-based, Danio rerio; details: zebrafish, 72 h, at 8.33 µg/mL, time 3 day
[16] = Inhibition of self-induced amyloid beta (1 to 42 residues) (unknown origin) aggregation by thioflavin T based fluorescence assay; parameters: species or system Homo sapiens; details: read-out: IC50
[17] = Effective permeability of compound at 100 ug/m by PAMPA-BBB assay; type: ADME; details: read-out: Peff
[18] = target: T1, Cholinesterase; assay: Reversible inhibition of human BChE assessed as residual activity at 0.1 times of IC50 concentration after 240 mins relative to control
[19] = Inhibition of Cu2+-induced amyloid beta (1 to 42 residues) (unknown origin) aggregation at 25 uM after 24 hrs by thioflavin-T fluorescence method relative to control
[20] = species on record: Danio rerio; assay: Antialzheimer activity in Alcl3-induced zebra fish AD model assessed as increase in motility at 0.26 ug/ml relative to control; type: functional; details: dose 0.26 µg/ml
[21] = Drug metabolism in mouse urine assessed as metabolite formation by UPLC-TOF analysis; type: ADME
[22] = Metal chelating activity assessed as Fe2+-compound complex formation in PBS buffer at pH 7.4 at 37.5 uM by UV-Visible spectra analysis
[23] = tested on: Mus musculus; assay: Antialzheimer activity in scopolamine-induced Kunming mouse model of memory impairment assessed as total reads in brain hippocampus at 5 mg/kg , po by illumina sequencing method (reference value: 100%); type: functional
[24] = tested on: Mus musculus; assay: Antialzheimer activity in scopolamine-induced Kunming mouse model of memory impairment assessed as GC bases ratio (QC data) in brain hippocampus at 5 mg/kg , po by illumina sequencing method (reference value: 53.64%); type: functional
[25] = Toxicity in 2 dpf zebra fish assessed as edema in kidney at 25 ug/ml after 3 days relative to control; parameters: species or system Danio rerio; details: zebrafish, 72 h, at 25 µg/mL, time 3 day
[26] = Toxicity in 2 dpf zebra fish assessed as dark brown liver at 25 ug/ml after 3 days relative to control; parameters: species or system Danio rerio; details: zebrafish, 72 h, at 25 µg/mL, time 3 day
[27] = Toxicity in 2 dpf zebra fish assessed as misshapen brain at 25 ug/ml after 3 days relative to control; type: tissue-based, Danio rerio; details: zebrafish, 72 h, at 25 µg/mL, time 3 day
[28] = Toxicity in 3 dpf zebra fish assessed as mortality at 3.125 ug/ml (reference value: 0%); parameters: species or system Danio rerio; details: zebrafish, at 3.125 µg/mL, read-out: Activity
[29] = Toxicity in 2 dpf zebra fish assessed as slow blood flow at 25 ug/ml after 3 days relative to control; type: tissue-based, Danio rerio; details: zebrafish, 72 h, at 25 µg/mL, time 3 day
[30] = tested on: HT-22; assay: Activation of ubiquitin-proteasome system in mouse HT-22 cells expressing pRK5-GFP-Tau assessed as increase in tau degradation by measuring reduction in GFP level after 24 hrs by fluorescence microscopic method; type: cell-based; details: filed as activator, dose 2.5-20 µM
[31] = tested on: HT-22; assay: Activation of ubiquitin-proteasome system in mouse HT-22 cells expressing pRK5-GFP-Tau assessed as increase in tau degradation by measuring reduction in GFP level at 2.5 to 20 uM after 24 hrs by Western blot analysis; type: cell-based; details: filed as activator, dose 2.5-20 µM
[32] = species on record: Danio rerio; assay: Antialzheimer activity in amyloid beta (1 to 40 residues)-induced zebra fish AD model assessed as reduction in vascular injury at 0.09 ug/ml relative to control; type: functional; parameters: scale not given: the % may be the effect or the level left; details: dose 0.09 µg/ml
[33] = Drug metabolism in mouse feces assessed as metabolite formation by UPLC-TOF analysis; type: ADME
[34] = Metal chelating activity assessed as Al3+-compound complex formation in PBS buffer at pH 7.4 at 37.5 uM by UV-Visible spectra analysis
[35] = tested on: HT-22; assay: Activation of ubiquitin-proteasome system in mouse HT-22 cells expressing pRK5-GFP-Tau P301L mutant assessed as increase in tau degradation by measuring reduction in GFP level at 2.5 to 20 uM after 24 hrs by flow cytometric analysis; type: cell-based; details: filed as activator, dose 2.5-20 µM
[36] = tested on: Mus musculus; assay: Antialzheimer activity in scopolamine-induced Kunming mouse model of memory impairment assessed as Q30 bases ratio (raw data) in brain hippocampus at 5 mg/kg , po by illumina sequencing method (reference value: 93.53%); type: functional
[37] = Toxicity in 2 dpf zebra fish assessed as small brain at 25 ug/ml after 3 days relative to control; type: tissue-based, Danio rerio; details: zebrafish, 72 h, at 25 µg/mL, time 3 day
[38] = Toxicity in 2 dpf zebra fish at 25 ug/ml after 3 days; parameters: species or system Danio rerio; details: zebrafish, 72 h; dose 25 µg/ml, time 3 day
[39] = Effect on GFP expression in mouse HT-22 cells expressing pEGFP-N1 at 10 uM after 24 hrs by flow cytometric analysis; type: ADME, cell-based; details: ht-22, 24 h
[40] = Metal chelating activity assessed as Zn2+-compound complex formation in PBS buffer at pH 7.4 at 37.5 uM by UV-Visible spectra analysis

For `CCN(CCCCOc1ccc(-c2cc(=O)c3c(O)cc(OCCCCN(CC)Cc4ccccc4)cc3o2)cc1)Cc1ccccc1`, the Activity [1] was 84%, the Activity [2] was 66.7% and the Activity [3] was “Dose-dependent effect”. For the same compound, the IC50 [4] was 3.7 µM, the Activity [5] was “Active” and the Kdiss [6] was 2.56 10^-2/s. For the same compound, the Activity [7] was “Active”, the Activity [8] was 70% and the Activity [9] was “Non-Toxic”. The Activity [10] was “Active”, the Activity [11] was 94.34% and the IC50 [12] was 0.36 µM. For the same compound, the Activity [13] was “Dose-dependent effect”, the Activity [14] was 50% and the Activity [15] was 33.3%. It also gave an IC50 [16] of 5.8 µM, a Papp at 100 ug/m [17] of 16.8 nm/s and an Activity [18] of 97.6%. The inhibition [19] was 81.3%, the Activity [20] was 81% and the Drug metabolism [21] was “Metabolite_Detected”. For the same compound, the Activity [22] was “Active”, the Activity [23] was 100% and the Activity [24] was 59.05%. The Activity [25] was 66.7%, the Activity [26] was 100% and the Activity [27] was 76.7%. The mortality at 3.125 ug/ml [28] was 100%, the Activity [29] was 46.7% and the Activity [30] was “Dose-dependent effect”. The Activity [31] was “Active”, the Activity [32] was 9% and the Drug metabolism [33] was “Metabolite_Detected”. For the same compound, the Activity [34] was “inactive”, the Activity [35] was “Active” and the Activity [36] was 93.58%. For the same compound, the Activity [37] was 50%, the Activity [38] was “Non-Toxic” and the Activity [39] was “Non-Toxic”. For the same compound, the Activity [40] was “inactive”.

From ChEMBL document CHEMBL4765274, “The development of advanced structural framework as multi-target-directed ligands for the treatment of Alzheimer's disease” (Eur J Med Chem, 2020)
